Assay results published in US8816102B2, “Compounds” (Givaudan S.A., priority 2009, dated 2014).

Legend:
Set-up in all cases: species or system human
[1] = Use in tomato soup, tasted by flavourists; settings: tomato soup containing 10 ppm compound; 4 flavourists
Experimental: A tomato soup mix was prepared from 9.4 g of sodium chloride, 1 g of mono sodium glutamate, 0.08 g ribonucleotides (ex yeast), 32 g of tomato powder (ex Spreda), 25.1 g of glucose, 21 g of starch (Ultrasperse 5 ex National Starch), 5 g of palm fat powder, 3 g of yeast powder, 1 g on onion powder, 0.15 g of carrot powder, 0.05 g of ground white pepper, 0.3 g celery extract powder, 0.05 g of ground laurel leaf powder, and 1.85 g of sucrose. 25 G of the well mixed ingredients was added to 250 g of boiling water and stirred until completely dissolved.
The reference soup was compared with a batch of the same soup containing 10 ppm of N-(2-hydroxyethyl)-2-(benzo[1,3]dioxol-5-yl)-2-oxoacetamide as prepared in example 2.

[2] = Sensory panel tasting of 0.3% NaCl and 0.03% MSG solution with and without compound; settings: 0.3% NaCl, reference solution A: salty, umami, trained panel of 20 women
Experimental: (§1) Two solutions were prepared:
A a solution of 0.3% NaCl and 0.03% MSG
B a solution of 0.3% NaCl and 0.03% MSG and 10 ppm Example 6 compound.
(§2) The samples were tasted by a trained sensory panel composed of 20 women aged between 30 and 60.
A a solution of 0.3% NaCl, 0.03% MSG
B a solution of 0.3% NaCl, 0.03% MSG and 10 ppm N-heptyl-2-oxo-3-phenylpropionamide as prepared in example 9.
B a solution of 0.3% NaCl, 0.03% MSG and 1 ppm N-(4-heptyl)-2-oxo-3-phenylpropionamide as prepared in example 10.
B a solution of 0.3% NaCl, 0.03% MSG and 1 ppm N-heptyl 3-methoxy-4-hydroxy-mandelic acid as prepared in Example 8.

[3] = Use in tomato ketchup, tasted by flavourists; settings: 4 flavourists
Experimental: A tomato ketchup was prepared from 19% tomato paste (28-30% dry weight), 8% of vinegar (15%), 3% of sodium chloride, 20% of sugar and 50% of water.
To one half of the batch was added 2 ppm of N-(4-heptyl) 2-(4-hydroxy-3-methyxophenol)-2-oxoacetamide (Example 5)
A batch of tomato ketchup was prepared as described in Example 12. To one half of the batch was added 20 ppm N-(4-hepthyl) 4-hydroxy-3-methoxy-mandelic amide as prepared in Example 7.

[4] = Sensory panel tasting of 0.3% NaCl solution with and without compound; settings: 0.3% NaCl and 10 ppm compound; reference solution A (0.3% NaCl): salty; trained panel of 20 women
Experimental: as §1
A a solution of 0.3% NaCl
B a solution of 0.3% NaCl and 10 ppm Example 1 compound
as §2
B a solution of 0.3% NaCl and 10 ppm Example 5 compound.

[5] = Use in potato chips, tasted by trained sensory panel
Experimental: Plain potato chips were prepared.
One part was flavoured with 1.2% sodium chloride (sample A)
One part was flavoured with 1.2% sodium chloride and 0.3% MSG (sample b)
One part was flavoured with 1.2% sodium chloride and 2.5 ppm N-(4-heptyl)-2-(benzo[1,3]dioxol-5-yl)-2-oxo-acetamide as prepared in example 3 (sample C).
as §2

SMILES: O=C(NCCO)C(=O)c1ccc2c(c1)OCO2 [Example 2, 2-(benzo[d][1.3]dioxol-5-yl)-N-(2-hydroxyethyl)-2-oxoacetamide]
- taste of test soup compared with base soup [1]: more umami, was more lingering and was more complex

SMILES: CCCCCCCNC(=O)C(O)c1ccc(O)c(OC)c1 (stereo not shown) [Example 8, N-heptyl-2-hydroxy-2-(4-hydroxy-3-methoxyphenyl)acetamide]
- taste description of solution B ([2]; 0.03% MSG and 1 ppm compound): salty, more umami, slightly pungent

SMILES: CCCC(CCC)NC(=O)C(O)c1ccc(O)c(OC)c1 (stereo not shown) [Example 7, N-(heptan-4-yl)-2-hydroxy-2-(4-hydroxy-3-methoxyphenyl)acetamide]
- taste of test ketchup compared with base ketchup ([3]; tomato ketchup with 20 ppm compound): more umami, more bouillon-like and more full/complex

SMILES: O=C(NCCO)C(=O)c1ccccc1 [Example 1, N-(2-hydroxyethyl)-2-oxo-2-phenylacetamide]
- taste description of solution B [4]: more salty, salivating

SMILES: CCCCCCCNC(=O)C(=O)c1ccc(O)c(OC)c1 [Example 5, N-heptyl-2-(4-hydroxy-3-methoxyphenyl)-2-oxoacetamide]
- taste description of solution B [4]: more salty, salivating, lingering
- taste of test ketchup compared with base ketchup ([3]; tomato ketchup with 2 ppm compound): clearly more umami, more sweet and more full/complex

SMILES: N[C@@H](CCC(=O)O)C(=O)[O-].[Na+] [MSG, monosodium glutamate, reference compound]
- taste description of potato chips sample B ([5]; 1.2% sodium chloride and 0.3% MSG): salty and umami

SMILES: CCCC(CCC)NC(=O)C(=O)c1ccc2c(c1)OCO2 [Example 3, 2-(benzo[d][1,3]dioxol-5-yl)-N-(heptan-4-yl)-2-oxoacetamide]
- taste description of potato chips sample C ([5]; 1.2% sodium chloride and 2.5 ppm compound, sample A (1.2% sodium chloride): salty): salty, umami, long lasting, savoury, bouillon
- panel preference ([5]; sample C (1.2% sodium chloride and 2.5 ppm compound) versus samples A and B): preferred over the other two samples
- off-note observed ([5]; sample C, 1.2% sodium chloride and 2.5 ppm compound): slight bitter off-note

SMILES: CCCCCCCNC(=O)C(=O)Cc1ccccc1 [Example 9, N-heptyl-2-oxo-3-phenylpropanamide]
- taste description of solution B ([2]; 0.03% MSG and 10 ppm compound): salty, stronger umami, more bouillon-like

SMILES: CC(=O)C(=O)NCCO [Example 6, N-(2-hydroxyethyl)-2-oxopropanamide]
- taste description of solution B ([2]; 0.03% MSG and 10 ppm compound): more salty, more umami

SMILES: CCCC(CCC)NC(=O)C(=O)Cc1ccccc1 [Example 10, N-(heptan-4-yl)-2-oxo-3-phenylpropanamide]
- taste description of solution B ([2]; 0.03% MSG and 1 ppm compound): salty, more umami, more bouillon-like, slightly tingling
